Test system: psoriasis patients
Assay: Human Psoriasis Study of WP1220 and CABE (pilot study)
Format: in vivo
Settings: topical treatment; psoriasis patients not responsive to current standard therapies
Procedure: Human Psoriasis Study of WP1220 and CABE—The compounds WP1220 and CABE were tested in a pilot study of psoriasis patients who were not responsive to current standard therapies.

Compound	patients responded with substantial improvement or complete resolution of psoratic lesions
O=C(/C=C/c1ccc(O)c(O)c1)OCc1ccccc1 [CABE, (E)-Benzyl 3-(3,4-dihydroxyphenyl)acrylate]	five out of seven
C[C@H](NC(=O)/C(C#N)=C/C=C/c1cccc(Br)n1)c1ccccc1 [WP1220, (2E,4E)-5-(6-bromopyridin-2-yl)-2-cyano-N—((S)-1-phenylethyl)penta-2,4-dienamide]	seven out of seven

Source: US20110275577A1, “METHODS OF TREATING DERMATOLOGIC, GYNECOLOGIC, AND GENITAL DISORDERS WITH CAFFEIC ACID ANALOGS” (Moleculin, LLC, priority 2010, published 2011)
